Legend:
[1] = molecular target: T1, CHEK1 (Homo sapiens, UniProt O14757); design: method as in earlier work; settings: Table S1; cited from earlier work
T1 construct: purchased DiscoveRx KINOMEscan (Ambit Biosciences)
T1 sequence (O14757 1-476): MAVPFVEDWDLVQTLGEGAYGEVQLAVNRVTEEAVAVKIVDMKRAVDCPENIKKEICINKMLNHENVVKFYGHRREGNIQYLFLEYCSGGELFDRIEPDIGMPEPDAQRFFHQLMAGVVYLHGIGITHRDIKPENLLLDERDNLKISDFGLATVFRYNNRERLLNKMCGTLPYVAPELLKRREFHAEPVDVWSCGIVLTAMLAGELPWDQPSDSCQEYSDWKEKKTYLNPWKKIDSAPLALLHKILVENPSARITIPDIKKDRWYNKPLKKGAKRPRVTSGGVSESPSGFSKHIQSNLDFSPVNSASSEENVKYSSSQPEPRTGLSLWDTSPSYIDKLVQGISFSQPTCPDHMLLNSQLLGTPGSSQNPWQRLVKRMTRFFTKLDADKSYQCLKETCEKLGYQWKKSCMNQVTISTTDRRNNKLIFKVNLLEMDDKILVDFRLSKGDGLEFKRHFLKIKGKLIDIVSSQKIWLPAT

[2] = molecular target: T2, BMPR2 (Homo sapiens, UniProt Q13873); experiment: KINOMEscan panel screen; type: binding; settings: read-out: Percent Control(%)
T2 construct: purchased DiscoveRx KINOMEscan (Ambit Biosciences)

[3] = molecular target: T3, FYN (Homo sapiens, UniProt P06241); experiment: KINOMEscan panel screen; type: binding; settings: read-out: Percent Control(%)
T3 construct: purchased DiscoveRx KINOMEscan (Ambit Biosciences)

[4] = molecular target: T4, ABL1(E255K)-phosphorylated (Homo sapiens, UniProt P00519, E255K); experiment: KINOMEscan panel screen; type: binding; settings: read-out: Percent Control(%)
T4 construct: purchased DiscoveRx KINOMEscan (Ambit Biosciences)

[5] = molecular target: T5, PLK4 (Homo sapiens, UniProt O00444); experiment: KINOMEscan panel screen; type: binding; settings: read-out: Percent Control(%)
T5 construct: purchased DiscoveRx KINOMEscan (Ambit Biosciences)

[6] = molecular target: T6, NEK10 (Homo sapiens, UniProt Q6ZWH5); experiment: KINOMEscan panel screen; type: binding; settings: read-out: Percent Control(%)
T6 construct: purchased DiscoveRx KINOMEscan (Ambit Biosciences)

[7] = molecular target: T7, AKT2 (Homo sapiens, UniProt P31751); experiment: KINOMEscan panel screen; type: binding; settings: read-out: Percent Control(%)
T7 construct: purchased DiscoveRx KINOMEscan (Ambit Biosciences)

[8] = molecular target: T8, LATS1 (Homo sapiens, UniProt O95835); experiment: KINOMEscan panel screen; type: binding; settings: read-out: Percent Control(%)
T8 construct: purchased DiscoveRx KINOMEscan (Ambit Biosciences)

[9] = molecular target: T9, RET (Homo sapiens, UniProt P07949); experiment: KINOMEscan panel screen; type: binding; settings: read-out: Percent Control(%)
T9 construct: purchased DiscoveRx KINOMEscan (Ambit Biosciences)

[10] = molecular target: T10, CAMKK1 (Homo sapiens, UniProt Q8N5S9); experiment: KINOMEscan panel screen; type: binding; settings: read-out: Percent Control(%)
T10 construct: purchased DiscoveRx KINOMEscan (Ambit Biosciences)

[11] = molecular target: T11, PRKCH (Homo sapiens, UniProt P24723); experiment: KINOMEscan panel screen; type: binding; settings: read-out: Percent Control(%)
T11 construct: purchased DiscoveRx KINOMEscan (Ambit Biosciences)

[12] = molecular target: T12, ASK1 (Homo sapiens, UniProt Q99683); experiment: KINOMEscan panel screen; type: binding; settings: read-out: Percent Control(%)
T12 construct: purchased DiscoveRx KINOMEscan (Ambit Biosciences)

[13] = molecular target: T13, EPHA7 (Homo sapiens, UniProt Q15375); experiment: KINOMEscan panel screen; type: binding; settings: read-out: Percent Control(%)
T13 construct: purchased DiscoveRx KINOMEscan (Ambit Biosciences)

[14] = tested on: active β-catenin, NKD1, AXIN2 in MV4-11 tumors; experiment: Wnt/β-catenin signaling in MV4-11 xenograft tumors (western blot, qPCR); type: in vivo, NOD-SCID mice; settings: single oral dose 10 mg/kg
Method: Western blot assays and real-time qPCR assays were conducted on the harvested tumors.
Whole protein lysates of tumor samples were collected by the abrading of tumors in liquid nitrogen. […] Quantitative analysis of the protein level was performed with NIH image analysis software, ImageJ (normalized relative to the vehicle control).
Total RNA of cell samples and tumor samples was extracted using RNAsimple total RNA kit (TIANGEN) according to the manufacturer’s instructions. cDNA was generated using the iScript^TMcDNA Synthesis Kit (Bio-Rad), and the RT-PCR reactions were performed using SsoAdvanced SYBR Green Supermix (Bio-Rad). The reaction consisted of 40 cycles of denaturation at 95 °C for 5 s and annealing/extension for 30s at 60 °C.
The mice were assigned to 5 groups (n = 6 in each group). […] The mean values ± SD are shown. […] Representative images were shown.

[15] = molecular target: T14, TRKC (Homo sapiens, UniProt Q16288); experiment: KINOMEscan panel screen; type: binding; settings: read-out: Percent Control(%)
T14 construct: purchased DiscoveRx KINOMEscan (Ambit Biosciences)

[16] = molecular target: T15, RSK2(Kin.Dom.1-N-terminal) (Homo sapiens, UniProt P51812); experiment: KINOMEscan panel screen; type: binding; settings: read-out: Percent Control(%)
T15 construct: RSK2(Kin.Dom.1-N-terminal); purchased DiscoveRx KINOMEscan (Ambit Biosciences)

[17] = molecular target: T16, TYK2(JH2domain-pseudokinase) (Homo sapiens, UniProt P29597); experiment: KINOMEscan panel screen; type: binding; settings: read-out: Percent Control(%)
T16 construct: TYK2(JH2domain-pseudokinase); purchased DiscoveRx KINOMEscan (Ambit Biosciences)

[18] = molecular target: T17, CSNK2A2 (Homo sapiens, UniProt P19784); experiment: KINOMEscan panel screen; type: binding; settings: read-out: Percent Control(%)
T17 construct: purchased DiscoveRx KINOMEscan (Ambit Biosciences)

[19] = molecular target: T18, FGR (Homo sapiens, UniProt P09769); experiment: KINOMEscan panel screen; type: binding; settings: read-out: Percent Control(%)
T18 construct: purchased DiscoveRx KINOMEscan (Ambit Biosciences)

[20] = molecular target: T19, LIMK2 (Homo sapiens, UniProt P53671); experiment: KINOMEscan panel screen; type: binding; settings: read-out: Percent Control(%)
T19 construct: purchased DiscoveRx KINOMEscan (Ambit Biosciences)

[21] = molecular target: T20, YANK1 (Homo sapiens, UniProt Q8WU08); experiment: KINOMEscan panel screen; type: binding; settings: read-out: Percent Control(%)
T20 construct: purchased DiscoveRx KINOMEscan (Ambit Biosciences)

[22] = tested on: FLT3(ITD); experiment: KINOMEscan panel screen; type: binding, human; settings: 10 μM
[23] = molecular target: T21, AMPK-alpha1 (Homo sapiens, UniProt Q13131); experiment: KINOMEscan panel screen; type: binding; settings: read-out: Percent Control(%)
T21 construct: purchased DiscoveRx KINOMEscan (Ambit Biosciences)

[24] = tested on: EGFR(L747-T751del,Sins); experiment: KINOMEscan panel screen; type: binding; settings: 10 μM
[25] = molecular target: T22, CDK4-cyclinD1 (Homo sapiens, UniProt P11802); experiment: KINOMEscan panel screen; type: binding; settings: read-out: Percent Control(%)
T22 construct: purchased DiscoveRx KINOMEscan (Ambit Biosciences)

[26] = molecular target: T23, STK39 (Homo sapiens, UniProt Q9UEW8); experiment: KINOMEscan panel screen; type: binding; settings: read-out: Percent Control(%)
T23 construct: purchased DiscoveRx KINOMEscan (Ambit Biosciences)

[27] = molecular target: T24, YSK1 (Homo sapiens, UniProt O00506); experiment: KINOMEscan panel screen; type: binding; settings: read-out: Percent Control(%)
T24 construct: purchased DiscoveRx KINOMEscan (Ambit Biosciences)

[28] = molecular target: LCK (Homo sapiens, UniProt P06239); experiment: KINOMEscan panel screen; type: binding; settings: read-out: Percent Control(%)
[29] = molecular target: T25, MEK4 (Homo sapiens, UniProt P45985); experiment: KINOMEscan panel screen; type: binding; settings: read-out: Percent Control(%)
T25 construct: purchased DiscoveRx KINOMEscan (Ambit Biosciences)

[30] = molecular target: T26, CAMK1D (Homo sapiens, UniProt Q8IU85); experiment: KINOMEscan panel screen; type: binding; settings: read-out: Percent Control(%)
T26 construct: purchased DiscoveRx KINOMEscan (Ambit Biosciences)

[31] = molecular target: T27, RSK2(Kin.Dom.2-C-terminal) (Homo sapiens, UniProt P51812); experiment: KINOMEscan panel screen; type: binding; settings: read-out: Percent Control(%)
T27 construct: RSK2(Kin.Dom.2-C-terminal); purchased DiscoveRx KINOMEscan (Ambit Biosciences)

[32] = molecular target: T28, NEK2 (Homo sapiens, UniProt P51955); experiment: KINOMEscan panel screen; type: binding; settings: read-out: Percent Control(%)
T28 construct: purchased DiscoveRx KINOMEscan (Ambit Biosciences)

[33] = molecular target: T29, KIT(V559D,T670I) (Homo sapiens, UniProt P10721, T670I/V559D); experiment: KINOMEscan panel screen; type: binding; settings: read-out: Percent Control(%)
T29 construct: purchased DiscoveRx KINOMEscan (Ambit Biosciences)

[34] = molecular target: T30, LYN (Homo sapiens, UniProt P07948); experiment: KINOMEscan panel screen; type: binding; settings: read-out: Percent Control(%)
T30 construct: purchased DiscoveRx KINOMEscan (Ambit Biosciences)

[35] = molecular target: T31, MET(Y1235D) (Homo sapiens, UniProt P08581, Y1235D); experiment: KINOMEscan panel screen; type: binding; settings: read-out: Percent Control(%)
T31 construct: purchased DiscoveRx KINOMEscan (Ambit Biosciences)

LCK, sequence (P06239 whole entry): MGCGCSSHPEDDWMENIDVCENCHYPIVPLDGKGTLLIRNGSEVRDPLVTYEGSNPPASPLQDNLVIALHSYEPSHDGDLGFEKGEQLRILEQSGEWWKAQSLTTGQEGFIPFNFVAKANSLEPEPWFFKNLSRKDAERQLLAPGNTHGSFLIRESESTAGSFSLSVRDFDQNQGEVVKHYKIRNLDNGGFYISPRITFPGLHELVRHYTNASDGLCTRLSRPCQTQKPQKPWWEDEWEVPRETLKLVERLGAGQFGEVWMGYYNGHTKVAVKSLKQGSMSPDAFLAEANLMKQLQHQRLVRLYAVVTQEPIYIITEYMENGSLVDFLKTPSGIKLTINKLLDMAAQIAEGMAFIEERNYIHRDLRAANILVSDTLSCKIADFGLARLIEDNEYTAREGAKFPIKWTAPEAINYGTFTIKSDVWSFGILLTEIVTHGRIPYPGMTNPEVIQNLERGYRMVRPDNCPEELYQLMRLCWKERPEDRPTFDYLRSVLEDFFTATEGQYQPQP
T28 sequence (P51955 whole entry): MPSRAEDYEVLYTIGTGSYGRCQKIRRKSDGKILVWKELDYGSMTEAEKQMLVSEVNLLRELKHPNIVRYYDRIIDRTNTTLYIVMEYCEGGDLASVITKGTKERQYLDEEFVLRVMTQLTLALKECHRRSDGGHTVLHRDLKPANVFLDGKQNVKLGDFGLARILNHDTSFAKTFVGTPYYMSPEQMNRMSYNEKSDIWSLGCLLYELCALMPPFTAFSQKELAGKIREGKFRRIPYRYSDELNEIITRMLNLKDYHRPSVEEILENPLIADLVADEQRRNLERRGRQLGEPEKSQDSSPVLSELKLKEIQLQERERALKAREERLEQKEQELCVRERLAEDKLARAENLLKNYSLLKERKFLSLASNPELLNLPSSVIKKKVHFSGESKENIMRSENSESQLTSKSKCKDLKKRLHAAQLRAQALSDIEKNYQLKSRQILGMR
T26 sequence (Q8IU85 whole entry): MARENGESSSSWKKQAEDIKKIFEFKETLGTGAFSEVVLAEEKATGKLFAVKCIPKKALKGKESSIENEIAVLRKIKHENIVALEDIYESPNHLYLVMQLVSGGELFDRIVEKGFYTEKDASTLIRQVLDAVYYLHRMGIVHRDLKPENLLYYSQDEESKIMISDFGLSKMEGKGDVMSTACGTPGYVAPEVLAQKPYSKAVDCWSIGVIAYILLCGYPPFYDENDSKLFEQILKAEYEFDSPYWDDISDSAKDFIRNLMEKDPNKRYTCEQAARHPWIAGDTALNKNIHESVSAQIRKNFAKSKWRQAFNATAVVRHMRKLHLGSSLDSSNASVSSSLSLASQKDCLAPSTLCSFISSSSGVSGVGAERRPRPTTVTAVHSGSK
T9 sequence (P07949 29-1114): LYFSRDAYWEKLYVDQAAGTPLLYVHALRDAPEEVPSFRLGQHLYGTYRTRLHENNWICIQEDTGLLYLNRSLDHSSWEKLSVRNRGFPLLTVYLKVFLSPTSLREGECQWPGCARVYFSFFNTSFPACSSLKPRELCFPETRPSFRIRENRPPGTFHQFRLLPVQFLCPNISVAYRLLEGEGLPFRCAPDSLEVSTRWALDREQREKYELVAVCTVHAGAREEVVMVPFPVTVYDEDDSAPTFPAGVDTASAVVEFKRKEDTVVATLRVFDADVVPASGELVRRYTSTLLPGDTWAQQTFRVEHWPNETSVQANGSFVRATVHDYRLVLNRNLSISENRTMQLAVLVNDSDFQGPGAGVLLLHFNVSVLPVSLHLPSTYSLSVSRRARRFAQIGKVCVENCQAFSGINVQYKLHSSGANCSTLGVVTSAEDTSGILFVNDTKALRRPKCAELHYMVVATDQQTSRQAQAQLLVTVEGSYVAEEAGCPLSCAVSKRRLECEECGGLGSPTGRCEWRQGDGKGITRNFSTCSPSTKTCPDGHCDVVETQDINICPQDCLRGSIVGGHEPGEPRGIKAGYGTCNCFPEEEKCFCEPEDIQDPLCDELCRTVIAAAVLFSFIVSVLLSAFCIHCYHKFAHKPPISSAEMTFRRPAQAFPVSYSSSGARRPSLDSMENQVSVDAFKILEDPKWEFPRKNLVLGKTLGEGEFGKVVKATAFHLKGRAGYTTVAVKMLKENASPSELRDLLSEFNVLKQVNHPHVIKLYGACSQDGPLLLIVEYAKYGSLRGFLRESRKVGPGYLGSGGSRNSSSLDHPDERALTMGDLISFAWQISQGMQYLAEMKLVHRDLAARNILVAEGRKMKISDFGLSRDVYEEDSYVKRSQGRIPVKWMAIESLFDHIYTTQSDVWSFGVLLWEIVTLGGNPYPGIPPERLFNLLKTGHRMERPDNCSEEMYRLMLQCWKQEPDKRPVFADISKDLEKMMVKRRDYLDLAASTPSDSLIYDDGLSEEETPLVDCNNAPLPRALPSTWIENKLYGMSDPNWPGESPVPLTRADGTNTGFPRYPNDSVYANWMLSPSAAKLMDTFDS
T12 sequence (Q99683 whole entry): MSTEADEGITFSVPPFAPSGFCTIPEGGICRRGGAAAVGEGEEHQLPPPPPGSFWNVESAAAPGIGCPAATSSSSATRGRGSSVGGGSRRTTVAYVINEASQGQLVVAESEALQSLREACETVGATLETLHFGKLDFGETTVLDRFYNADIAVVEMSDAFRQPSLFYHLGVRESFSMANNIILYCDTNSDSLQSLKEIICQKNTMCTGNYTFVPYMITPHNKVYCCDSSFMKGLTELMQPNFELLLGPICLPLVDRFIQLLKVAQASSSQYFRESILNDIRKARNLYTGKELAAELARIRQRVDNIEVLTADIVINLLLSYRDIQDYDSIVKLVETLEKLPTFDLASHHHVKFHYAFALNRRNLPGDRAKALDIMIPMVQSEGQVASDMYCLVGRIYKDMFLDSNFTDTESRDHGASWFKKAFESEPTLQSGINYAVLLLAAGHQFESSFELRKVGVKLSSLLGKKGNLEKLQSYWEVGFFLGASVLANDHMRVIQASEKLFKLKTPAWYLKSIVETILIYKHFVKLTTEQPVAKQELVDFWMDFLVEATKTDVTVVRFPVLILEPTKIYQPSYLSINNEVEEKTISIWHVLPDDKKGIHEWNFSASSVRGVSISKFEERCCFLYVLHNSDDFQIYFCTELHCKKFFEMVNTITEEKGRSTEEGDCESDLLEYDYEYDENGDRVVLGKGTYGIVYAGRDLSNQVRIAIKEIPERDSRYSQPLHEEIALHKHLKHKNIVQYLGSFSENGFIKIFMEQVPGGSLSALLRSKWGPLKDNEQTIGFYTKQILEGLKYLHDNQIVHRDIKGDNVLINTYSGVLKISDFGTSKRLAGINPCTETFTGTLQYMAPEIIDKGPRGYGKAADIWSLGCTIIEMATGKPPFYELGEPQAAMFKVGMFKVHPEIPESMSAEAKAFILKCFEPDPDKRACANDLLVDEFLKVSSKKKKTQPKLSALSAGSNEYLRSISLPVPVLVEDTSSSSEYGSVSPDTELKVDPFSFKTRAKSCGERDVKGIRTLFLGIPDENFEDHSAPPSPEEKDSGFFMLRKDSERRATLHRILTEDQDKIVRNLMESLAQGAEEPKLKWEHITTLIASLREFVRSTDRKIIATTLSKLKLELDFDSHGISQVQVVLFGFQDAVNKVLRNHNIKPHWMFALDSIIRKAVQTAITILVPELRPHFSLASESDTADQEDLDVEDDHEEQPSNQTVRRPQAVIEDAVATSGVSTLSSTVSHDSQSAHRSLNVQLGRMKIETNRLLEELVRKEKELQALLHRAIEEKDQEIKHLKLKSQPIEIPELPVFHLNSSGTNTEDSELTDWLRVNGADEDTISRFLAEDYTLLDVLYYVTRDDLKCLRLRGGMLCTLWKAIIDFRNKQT
T13 sequence (Q15375 28-998): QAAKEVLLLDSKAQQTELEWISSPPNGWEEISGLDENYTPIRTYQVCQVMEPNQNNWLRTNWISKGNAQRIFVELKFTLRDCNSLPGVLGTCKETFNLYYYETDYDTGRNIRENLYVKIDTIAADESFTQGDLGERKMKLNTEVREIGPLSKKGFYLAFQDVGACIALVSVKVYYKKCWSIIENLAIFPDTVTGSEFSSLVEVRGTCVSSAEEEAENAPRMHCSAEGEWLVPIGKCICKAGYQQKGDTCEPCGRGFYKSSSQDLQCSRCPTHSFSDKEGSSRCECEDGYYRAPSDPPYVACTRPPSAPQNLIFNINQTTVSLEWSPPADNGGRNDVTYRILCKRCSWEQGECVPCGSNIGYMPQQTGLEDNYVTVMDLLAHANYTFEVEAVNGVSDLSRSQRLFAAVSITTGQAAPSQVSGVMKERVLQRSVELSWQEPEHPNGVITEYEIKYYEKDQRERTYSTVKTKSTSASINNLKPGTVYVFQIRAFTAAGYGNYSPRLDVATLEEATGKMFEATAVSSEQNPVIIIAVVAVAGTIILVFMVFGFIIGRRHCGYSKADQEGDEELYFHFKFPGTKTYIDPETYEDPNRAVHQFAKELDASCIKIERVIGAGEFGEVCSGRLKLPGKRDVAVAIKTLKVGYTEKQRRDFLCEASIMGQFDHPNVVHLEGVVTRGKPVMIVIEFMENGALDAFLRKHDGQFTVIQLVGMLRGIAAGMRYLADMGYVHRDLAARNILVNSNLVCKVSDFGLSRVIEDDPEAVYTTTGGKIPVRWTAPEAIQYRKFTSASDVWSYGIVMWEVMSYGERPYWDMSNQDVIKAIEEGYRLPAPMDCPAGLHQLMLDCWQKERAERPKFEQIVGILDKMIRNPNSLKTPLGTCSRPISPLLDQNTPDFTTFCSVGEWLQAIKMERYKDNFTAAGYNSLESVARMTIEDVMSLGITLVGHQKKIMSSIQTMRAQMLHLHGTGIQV
T27 sequence (P51812 422-679 limits assumed): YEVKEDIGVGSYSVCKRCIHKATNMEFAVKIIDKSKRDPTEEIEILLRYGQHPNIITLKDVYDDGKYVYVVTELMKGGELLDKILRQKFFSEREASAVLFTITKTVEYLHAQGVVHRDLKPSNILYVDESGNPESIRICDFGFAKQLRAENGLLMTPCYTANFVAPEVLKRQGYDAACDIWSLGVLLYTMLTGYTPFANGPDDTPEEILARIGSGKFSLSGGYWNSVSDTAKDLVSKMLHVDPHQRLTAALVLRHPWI

## O=C(Nc1ccc(Oc2ncnc3[nH]ncc23)cc1)Nc1ccc(Cl)c(C(F)(F)F)c1 [Compound 1, 1-(4-(1H-pyrazolo[3,4-d]pyrimidin-4-yloxy)phenyl)-3-(4-chloro-3-(trifluoromethyl)phenyl)urea]
[1]
  IC50: > 10 µM

## CC(C)(C)c1cc(NC(=O)Nc2ccc(Oc3ncnc4[nH]ncc34)c(F)c2)no1 [SKLB-677, 1-(4-(1H-pyrazolo[3,4-d]pyrimidin-4-yloxy)-3-fluorophenyl)-3-(5-tert-butylisoxazol-3-yl)urea]
[2]
  remaining binding at 10 µM: 14%
[3]
  remaining binding at 10 µM: 15%
[4]
  remaining binding at 10 µM: 11%
[5]
  remaining binding at 10 µM: 68%
[6]
  remaining binding at 10 µM: 93%
[7]
  remaining binding at 10 µM: 100%
[8]
  remaining binding at 10 µM: 47%
[9]
  remaining binding at 10 µM: 0.05%
[10]
  remaining binding at 10 µM: 4.4%
[11]
  remaining binding at 10 µM: 100%
[12]
  remaining binding at 10 µM: 57%
[13]
  remaining binding at 10 µM: 0%
[14]
  mRNA level of NKD1 and AXIN2 in tumors: down-regulated
  protein levels of active β-catenin and NKD1 in tumors: induced the reduction
[15]
  remaining binding at 10 µM: 0.05%
[16]
  remaining binding at 10 µM: 35%
[17]
  remaining binding at 10 µM: 100%
[18]
  remaining binding at 10 µM: 71%
[19]
  remaining binding at 10 µM: 9.4%
[20]
  remaining binding at 10 µM: 7%
[21]
  remaining binding at 10 µM: 88%
[22]
  Percent Control(%): 0.05%
[23]
  remaining binding at 10 µM: 3%
[24]
  Percent Control(%): 61%
[25]
  remaining binding at 10 µM: 29%
[26]
  remaining binding at 10 µM: 100%
[27]
  remaining binding at 10 µM: 35%
[28]
  remaining binding at 10 µM: 0.3%
[29]
  remaining binding at 10 µM: 39%
[30]
  remaining binding at 10 µM: 35%
[31]
  remaining binding at 10 µM: 100%
[32]
  remaining binding at 10 µM: 100%
[33]
  remaining binding at 10 µM: 0.1%
[34]
  remaining binding at 10 µM: 2%
[35]
  remaining binding at 10 µM: 5.4%

From PMC4620497 (Scientific Reports, 2015)
